From ChEMBL document CHEMBL1201862, “PubChem BioAssay data set” (2004) come the findings set out here.

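48-hour exposure; five concentrations; linearly interpolated endpoints. GI50 marks 50% less growth.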 Activity calls are given as the source filed them. Rule as the data show it: active = GI50 up to about 1.1 µM and inactive = higher.

Holding throughout (test): inhibition of tumour cell growth, NCI panel, 48 h
The subject of assay [1] is NCI-H522.
In assay [2] the test system is LXFL 529.
Assay [3] relates to M14.
The test system of assay [4] is SK-MEL-2.
The subject of assay [5] is SN12C.
The test system of assay [6] is HT-29.
The test system of assay [7] is Malme-3M.
Assay [8] relates to OVCAR-4.
In assay [9] the test system is UACC-62.
In assay [10] the test system is HCT-116.
Assay [11] concerns NCI-H460.
Assay [12] has as its system A549.
Assay [13] relates to ACHN.
Assay [14] concerns SF-295.
For assay [15], the system named is SNB-19.
In assay [16] the test system is HCC 2998.
The test system of assay [17] is UO-31.
Assay [18] has as its system MDA-MB-435.
For assay [19], the system named is BT-549.
Assay [20] has as its system KM-20L2.

Turning to `O=C(NCCNCCO)N/N=C/c1ccccc1`, the GI50 in assay [1], in assay [2], in assay [3], in assay [4], in assay [5] and in assay [6] was > 100 µM (inactive) throughout. Further, the GI50 in assay [7], in assay [8], in assay [9], in assay [10], in assay [11] and in assay [12] was > 100 µM (inactive) throughout. The GI50 in assay [13], in assay [14] and in [15] was > 100 µM (inactive) in each case.
On to `Cc1csc(=S)n1OC(=O)NC1CCCCC1`, for which the GI50 is 18.1 µM (inactive) in assay [1]; > 100 µM (inactive) in assay [16]; 13.8 µM (inactive) in [2]; 40.9 µM (inactive) in assay [3]; 68.4 µM (inactive) in assay [4]; > 100 µM (inactive) in assay [5]. Also, the GI50 was > 100 µM (inactive) in assay [17]; > 48.9 µM (inactive) in assay [6]; > 100 µM (inactive) in [7]; > 38.1 µM (inactive) in assay [9]; > 58.2 µM (inactive) in [10]; > 100 µM (inactive) in assay [11]. Moreover, the GI50 in assay [12] is > 73.3 µM (inactive); in [13], > 100 µM (inactive); in assay [14], > 100 µM (inactive); in assay [15] it was > 100 µM (inactive).
As for `Cc1cc2c(cc1Cl)SC(c1ccccc1O)NS2(=O)=O` (centres undefined), the GI50 in [18] was 45.7 µM (inactive); in [1] it was 48.9 µM (inactive); in assay [16] it was 31 µM (inactive); in [3], 57 µM (inactive); in assay [19], 47.2 µM (inactive); in assay [4], 87.3 µM (inactive). In addition, the GI50 is 41 µM (inactive) in [5]; 63.2 µM (inactive) in [17]; 45.4 µM (inactive) in assay [6]; 24.4 µM (inactive) in [7]; 63.7 µM (inactive) in [8]; 29.6 µM (inactive) in assay [9]. The GI50 in assay [10] was 27.5 µM (inactive); in assay [11], 92 µM (inactive); in assay [12], > 100 µM (inactive); in [13] it was 52.8 µM (inactive); in [14], > 100 µM (inactive); in assay [15], 81.3 µM (inactive).
`O=C(O)c1ccccc1NC(c1ccccc1)c1ccc2cccnc2c1O` (centres undefined): the GI50 is 14.8 µM (inactive) in assay [18]; 3.97 µM (inactive) in [1]; 12.3 µM (inactive) in assay [16]; 5.81 µM (inactive) in assay [3]; 11 µM (inactive) in assay [19]; 25.2 µM (inactive) in [4]. Further, the GI50 in assay [5] is 6.58 µM (inactive); in assay [17], 6.12 µM (inactive); in [6], 4.4 µM (inactive); in assay [7], 15.8 µM (inactive); in assay [8], 5.78 µM (inactive); in assay [9], 11.6 µM (inactive). Also, the GI50 in [10] is 3.65 µM (inactive); in assay [11], 4.03 µM (inactive); in assay [12] it was 5.56 µM (inactive); in assay [13] it was 9.18 µM (inactive); in assay [14], 4.37 µM (inactive); in assay [15], 5.24 µM (inactive).
For `CCN(CC)CCn1nc(N)c2nc3ccccc3nc21`, the GI50 was > 100 µM (inactive) in [18]; 96.4 µM (inactive) in [1]; > 100 µM (inactive) in assay [16]; > 100 µM (inactive) in [3]; > 100 µM (inactive) in [19]; > 100 µM (inactive) in assay [4]. Further, the GI50 in assay [5], in assay [17], in assay [6], in assay [7], in [8] and in [9] was > 100 µM (inactive) in each case. Also, the GI50 in [10] was 53.8 µM (inactive); in [11], > 100 µM (inactive); in assay [12], > 100 µM (inactive); in assay [13], > 100 µM (inactive); in assay [14], > 100 µM (inactive); in assay [15], > 100 µM (inactive).
Take `Nc1c2ccccc2nc2c1ccc1ncccc12`: the GI50 in assay [18] was 27.8 µM (inactive); in [1], 12 µM (inactive); in [16], 8.99 µM (inactive); in assay [3] it was 19.4 µM (inactive); in assay [19], 48.3 µM (inactive); in assay [4], 18.6 µM (inactive). Also, the GI50 is 21.1 µM (inactive) in assay [5]; 10.1 µM (inactive) in assay [17]; 11.5 µM (inactive) in [6]; 12.4 µM (inactive) in assay [7]; 17.9 µM (inactive) in assay [8]; 14.5 µM (inactive) in [9]. Moreover, the GI50 in assay [10] was 5.22 µM (inactive); in assay [11], 5.83 µM (inactive); in [12] it was 21.9 µM (inactive); in [13], 5.38 µM (inactive); in assay [14], 21.8 µM (inactive); in [15], 36.8 µM (inactive).
Turning to `O=C1NC2(CCN(CCc3ccccc3)CC2)Oc2ccccc21`, the GI50 in assay [18] was 53.5 µM (inactive); in assay [1] it was 95.1 µM (inactive); in assay [16], 62.1 µM (inactive); in assay [3], 18.5 µM (inactive); in assay [19], 39 µM (inactive); in [4] it was > 100 µM (inactive). In addition, the GI50 in assay [5] was 99.5 µM (inactive); in assay [17] it was 49 µM (inactive); in assay [6] it was 38 µM (inactive); in assay [7] it was 33.3 µM (inactive); in assay [8], > 100 µM (inactive); in assay [9] it was 46.6 µM (inactive). Also, the GI50 in assay [10] was 55.2 µM (inactive); in assay [11], > 100 µM (inactive); in assay [12], 64.6 µM (inactive); in assay [13], 84.7 µM (inactive); in [14], 49.2 µM (inactive); in [15] it was 85.3 µM (inactive).
Regarding `COc1cc(C(=O)N(C)N(C)C)cc(OC)c1OC`, the GI50 in assay [18], in assay [1], in assay [16], in assay [3], in [19] and in [4] was > 10 µM (inactive) each time. For the same compound, the GI50 in assay [5], in [17], in assay [6], in [7], in assay [8] and in assay [9] was > 10 µM (inactive) in each case. The GI50 in [10], in assay [11], in [12], in assay [13], in assay [14] and in [15] was > 10 µM (inactive) in each case.
As to `Cc1cc(-c2nc3ccc(F)cc3s2)ccc1NC(=O)[C@H](C)N`, the GI50 in assay [18] is 2.49 µM (inactive); in [1], 7.74 µM (inactive); in assay [16] it was 0.428 µM (active); in assay [3], 1.95 µM (inactive); in assay [19] it was 13.7 µM (inactive); in assay [4] it was 12.4 µM (inactive). Also, the GI50 is 14.8 µM (inactive) in [5]; 4.14 µM (inactive) in assay [17]; 2.56 µM (inactive) in assay [6]; 21.3 µM (inactive) in [7]; 10.2 µM (inactive) in assay [8]; 1.88 µM (inactive) in assay [9]. For the same compound, the GI50 in [10] is 3.28 µM (inactive); in [11], 2.14 µM (inactive); in assay [12], 5.83 µM (inactive); in assay [13], 9.33 µM (inactive); in assay [14], 9.71 µM (inactive); in assay [15], 14.3 µM (inactive).
Take `N#CC(C#N)=C(N)/C(C#N)=C/c1ccc2[nH]ccc2c1`: the GI50 is > 100 µM (inactive) in [18]; 97.3 µM (inactive) in [1]; > 100 µM (inactive) in [16]; > 100 µM (inactive) in assay [3]; 70.6 µM (inactive) in assay [19]; > 100 µM (inactive) in assay [20]. The GI50 in assay [4] was > 100 µM (inactive); in assay [5], > 100 µM (inactive); in assay [17], 14 µM (inactive); in assay [6] it was > 100 µM (inactive); in [7], > 100 µM (inactive); in [8], > 100 µM (inactive). The GI50 in assay [9] is > 84.9 µM (inactive); in assay [10], > 100 µM (inactive); in assay [11], > 100 µM (inactive); in assay [12], > 100 µM (inactive); in assay [13], > 100 µM (inactive); in assay [14], > 100 µM (inactive). In addition, the GI50 in [15] is > 100 µM (inactive).
In the case of `CO[C@H]1C[C@H](O[C@H]2CC[C@]3(C=O)[C@H]4CC[C@]5(C)[C@@H](C6=CC(=O)OC6)CC[C@]5(O)[C@@H]4CC[C@]3(O)C2)O[C@H](C)[C@H]1O[C@@H]1O[C@H](CO[C@@H]2O[C@H](CO)[C@@H](O)[C@H](O)[C@H]2O)[C@@H](O)[C@H](O)[C@H]1O`, the GI50 was 0.166 µM (active) in assay [18]; 0.0139 µM (active) in [1]; 0.158 µM (active) in assay [16]; 0.147 µM (active) in assay [3]; 0.039 µM (active) in assay [19]; 0.235 µM (active) in assay [4]. Further, the GI50 is 0.0289 µM (active) in assay [5]; 0.0405 µM (active) in [17]; 0.0442 µM (active) in assay [6]; 0.0588 µM (active) in assay [7]; 0.0281 µM (active) in assay [8]; 0.223 µM (active) in [9]. The GI50 in assay [10] is 0.0239 µM (active); in assay [11], < 0.0132 µM (active); in assay [12], < 0.0131 µM (active); in assay [13], 0.0186 µM (active); in [14], 0.0395 µM (active); in assay [15], 0.186 µM (active).
